Experiments:
[1] = Clearance in human liver microsomes at 1 uM after 40 mins by HPLC-MS analysis; type: ADME, Microsome; conditions: read-out: CLH
[2] = Lipophilicity, log D of the compound at pH 7.4; type: physicochemical; conditions: buffer
[3] = system: Rattus norvegicus; assay: fCmax in Wistar Han rat at 30 mg/kg, po; type: ADME, organism-based; design: dose 30 mg/kg, route oral; conditions: in vivo
[4] = Volume of distribution at steady state in Wistar Han rat at 1 mg/kg, iv; type: ADME, organism-based; design: dose 1 mg/kg, route intravenous; conditions: in vivo, read-out: Vdss
[5] = Terminal elimination half life in Wistar Han rat at 1 mg/kg, iv; type: ADME, organism-based; design: dose 1 mg/kg, route intravenous; conditions: in vivo, read-out: beta t1/2 (converted)
[6] = Cmax in Wistar Han rat at 30 mg/kg, po; type: ADME, organism-based; design: dose 30 mg/kg, route oral; conditions: in vivo
[7] = Plasma clearance in Wistar Han rat at 1 mg/kg, iv; type: ADME, organism-based; design: dose 1 mg/kg, route intravenous
[8] = Oral bioavailability in Wistar Han rat at 30 mg/kg; type: ADME, organism-based; conditions: in vivo
[9] = Terminal elimination half life in Wistar Han rat at 100 mg/kg, po; type: ADME, organism-based; design: dose 100 mg/kg, route oral; conditions: in vivo, read-out: beta t1/2 (converted)
[10] = system: Rattus norvegicus; assay: fCmax in Wistar Han rat at 100 mg/kg, po; type: ADME, organism-based; design: dose 100 mg/kg, route oral; conditions: in vivo
[11] = Cmax in Wistar Han rat at 100 mg/kg, po; type: ADME, organism-based; design: dose 100 mg/kg, route oral; conditions: in vivo

SMILES | CLint scaled at 1 µM [1] [mL/min/kg] | logD [2] | further results
Cc1ccc(-n2nc(C(C)(C)C)cc2NC(=O)Nc2cc(COc3cccnc3)n[nH]2)cc1 | 109 |  | 
CNC(=O)c1cc2cccc(NC(=O)Nc3cc(C(C)(C)C)nn3-c3ccc(C)cc3)c2[nH]1 | 28 | 4.9 | 
Cc1ccc(-n2nc(C(C)(C)C)cc2NC(=O)Nc2cccc3cc(C(=O)NC(C)C)[nH]c23)cc1 | 93 | 5.3 | 
Cc1ccc(-n2nc(C(C)(C)C)cc2NC(=O)Nc2cccc3cc(C(=O)N4CCC5(CCNC5)C4)[nH]c23)cc1 (stereo not given) | 53 |  | 
Cc1ccc(-n2nc(C(C)(C)C)cc2NC(=O)Nc2cccc3cc(C(=O)N(C)CCc4ccccn4)[nH]c23)cc1 | 53 |  | fCmax [3]: 25 nM; Vd [4]: 0.4 L/kg; half-life [5]: 2.2 h; Cmax [6]: 38.3 µM; clearance [7]: 3.2 mL/min/kg; bioavailability [8]: 69%
CCOCCCNC(=O)c1cc2cccc(NC(=O)Nc3cc(C(C)(C)C)nn3-c3ccc(C)cc3)c2[nH]1 | 31 |  | fCmax [3]: 42 nM; Vd [4]: 0.7 L/kg; half-life [5]: 4.1 h; Cmax [6]: 0.621 µM; clearance [7]: 4.8 mL/min/kg; bioavailability [8]: 1.6%
COc1ccc(-c2cc(NC(=O)Nc3cc(C(C)(C)C)nn3-c3ccc(C)cc3)n[nH]2)c(C)c1 | 129 |  | 
Cc1ccc(-n2nc(C(C)(C)C)cc2NC(=O)Nc2cc(-c3ccc(=O)[nH]c3)n[nH]2)cc1 | 11.9 | 3.7 | 
Cc1ccc(-n2nc(C(C)(C)C)cc2NC(=O)Nc2cc(-c3ccc(=O)n(C)c3)n[nH]2)cc1 | 20 | 3.8 | 
Cc1ccc(-n2nc(C(C)(C)C)cc2NC(=O)Nc2cccc3cc(C(=O)N4CCCC4)[nH]c23)cc1 | 77 |  | 

Further lines, with some results ahead:

CLint scaled at 1 µM [1] [mL/min/kg] | logD [2] | SMILES | further results
48 | 4.9 | COc1ccc(-c2cc(NC(=O)Nc3cc(C(C)(C)C)nn3-c3ccc(C)cc3)n[nH]2)cn1 | 
16 |  | Cc1ccc(-n2nc(C(C)(C)C)cc2NC(=O)Nc2cc(-c3ccc(O)nn3)[nH]n2)cc1 | 
92 |  | Cc1ccc(-n2nc(C(C)(C)C)cc2NC(=O)Nc2cc(-c3ccc4c(c3)OCCO4)[nH]n2)cc1 | 
44 | 4.5 | Cc1ccc(-n2nc(C(C)(C)C)cc2NC(=O)Nc2cc(-c3ccc4nccn4c3)[nH]n2)cc1 | 
55 | 5.2 | Cc1ccc(-n2nc(C(C)(C)C)cc2NC(=O)Nc2cc(-c3ccc4ncccc4c3)n[nH]2)cc1 | fCmax [3]: 184 nM; Vd [4]: 0.15 L/kg; half-life [5]: 2 h; Cmax [6]: 61.3 µM; clearance [7]: 2 mL/min/kg; bioavailability [8]: 47%
149 | 4.7 | Cc1ccc(-n2nc(C(C)(C)C)cc2NC(=O)Nc2cc(-c3ccc4nccnc4c3)[nH]n2)cc1 | half-life [9]: 7.3 h; fCmax [10]: 1.1 nM; Cmax [11]: 0.068 µM

Reference: ChEMBL document CHEMBL2203248, “Identification of novel series of pyrazole and indole-urea based DFG-out PYK2 inhibitors” (Bioorg Med Chem Lett, 2012)
